This note sets out measurements from patent publication US7642258B2 (Allergan, Inc., priority 2002, dated 2010).

Data set [1] has as its system patients with glaucoma or ocular hypertension. Nature of the data set: Clinical study: intraocular pressure (IOP) lowering, multicenter double-masked randomized parallel-group. It counts as in vivo. The note with it: range over week 2, week 6 and month 3 (hours 0, 2, 7, 9).
Protocol: IOP (hours 0, 2, 7, and 9), patient satisfaction questionnaire, patient comfort of study medication questionnaire, pharmacoeconomic evaluation by investigator
All data were summarized with descriptive statistics, frequency tables, and/or data listings. Safety analyses included all patients who received at least 1 dose of study medication. Analyses were performed for the primary efficacy variable IOP using the intent-to-treat (ITT) population with last observation carried forward (LOCF), and the per protocol population with observed cases.
Continuous variables (eg, IOP) were analyzed using analysis of variance (ANOVA). Within-group changes from baseline for continuous variables were analyzed using paired t-tests.
A 2-way ANOVA model with factors for treatment and investigator was used for the analysis of IOP. Comparisons were made between the Combination and each of the 2 monotherapies in a pairwise fashion using contrasts from the ANOVA model, with the same error term. A separate ANOVA model was employed at each hour/visit measurement of IOP. […] Point estimates of the mean treatment differences, as well as 2-sided 95% confidence intervals (CI) of the difference, were provided at each timepoint.
The test system is the same in data set [2]. The data set is described as follows: Clinical study: safety (adverse events, heart rate, blood pressure, visual acuity). It counts as in vivo.
Data set [3] in a line: Clinical study: quantitation of plasma brimonidine and timolol concentrations. It counts as in vivo, patients. The note with it: for concentration at 1 h: human, plasma, other: ophthalmic solution, 1 hour postdose, read-out: mean±SD plasma timolol concentration.

Like-named read-outs stand apart in the source and are kept apart here.

With `CC(C)(C)NC[C@H](O)COc1nsnc1N1CCOCC1.O=C(O)/C=C\C(=O)O` [Timolol], in data set [1], the “Mean changes from baseline diurnal IOP” value was −4.5 to −6.4 mm Hg and the “Mean values of diurnal IOP” value lay within 17.5 to 18.9 mm Hg. Moreover, in data set [2] (% of patients), the “Serious adverse events reported” value is 2.0% and the “discontinuation of patients due to adverse events” value amounted to 3.0%. Also, in data set [2] (adverse event through month 3), the “allergic conjunctivitis, % of patients” value is “(0.0%)”; the “allergic conjunctivitis, number of patients” value was 0; the “asthenia, % of patients” value is “(0.5%)”; the “asthenia, number of patients” value was 1. Moreover, in data set [2] (adverse event through month 3), the “burning sensation in eye, % of patients” value is recorded as “(12.7%)”; the “burning sensation in eye, number of patients” value was 25; the “conjunctival folliculosis, % of patients” value is listed as “(0.5%)”; the “conjunctival folliculosis, number of patients” value stood at 1. In data set [2] (adverse event through month 3), the “conjunctival hyperemia, % of patients” value was “(5.6%)”; the “conjunctival hyperemia, number of patients” value came out at 11; the “epiphora, % of patients” value is given as “(1.5%)”; the “epiphora, number of patients” value turned out to be 3. Also, in data set [2] (adverse event through month 3), the “eye pruritus, % of patients” value is “(1.5%)”; the “eye pruritus, number of patients” value is given as 3; the “foreign body sensation, % of patients” value is listed as “(2.5%)”; the “foreign body sensation, number of patients” value turned out to be 5. In addition, in data set [2] (adverse event through month 3), the “infection (body as a whole), % of patients” value is reported as “(4.1%)”; the “infection (body as a whole), number of patients” value worked out at 8; the “oral dryness, % of patients” value was “(0.5%)”; the “oral dryness, number of patients” value turned out to be 1. For the same compound, in data set [2] (adverse event through month 3), the “somnolence, % of patients” value is “(0.0%)”; the “somnolence, number of patients” value was found to be 0; the “stinging sensation eye, % of patients” value is on record as “(5.6%)”; the “stinging sensation eye, number of patients” value is 11. Also, in data set [2] (adverse event through month 3), the “visual disturbance, % of patients” value is listed as “(1.5%)” and the “visual disturbance, number of patients” value is reported as 3. Also, in data set [2] (through month 3), the “incidence of eye discharge” value worked out at 0% and the “patients who experienced one or more adverse events, regardless of causality” value is given as 50.8%. In data set [3] (month 3), the concentration at 1 h came to 0.873 ± 0.516 ng/mL and the “plasma timolol concentration in males lower than in females” value was 39%. In data set [3] (week 2), the concentration at 1 h amounted to 0.95 ± 0.709 ng/mL and the “plasma timolol concentration in males lower than in females” value is reported as 45%.

Take `Brc1c(N=C2NCCN2)ccc2nccnc12.O=C(O)C(O)C(O)C(=O)O` [Brimonidine, 5-Bromo-6-(2-imidazolidinylideneamino)quinoxaline L-tartrate]: in data set [1], the “Mean changes from baseline diurnal IOP” value is given as −3.5 to −5.7 mm Hg and the “Mean values of diurnal IOP” value lay in the range of 17.4 to 21.5 mm Hg.
